In patent publication US9707265B2, “Treatment of muscular dystrophy” (The University of Sheffield, priority 2012, dated 2017):
“Also recorded” adds a separate entry of the source. Where a SMILES comes first, the peptide text is derived from it. The star is where a group is joined. Cbz = O=C(OCc1ccccc1)*

Columns and labels:
[1] = system: sapje zebrafish; assay: Rescue of the dystrophic phenotype (muscle integrity, actin:GFP) in sapje zebrafish embryos; type: in vivo; conditions: sapje embryos treated from 24 hpf; actin:GFP as marker of muscle integrity
Protocol: Zebrafish embryos were collected from group matings of heterozygous sapje ta222a (a dystrophin mutant) and homozygous for a transgene that labels all the fast muscle with GFP (actin:GFP;). At 24 hours post fertilization (hpf) embryos were dechorionated enzymatically, washed and arrayed into multiwell plates with 40 embryos per treatment (5 embryos per well). Sapje embryos are produced at normal Mendelian frequencies, so from 40 embryos we expect 10 homozygote for sapje. Compounds to be tested were added to a final concentration based on available clinical or mouse studies for EC50. All plates included negative controls. Live embryos were assayed for muscle degeneration using actin:GFP as a marker of muscle integrity in sapje fish. Fluorescent scans for GFP along the body axis of wildtype siblings or mutant fish reveal a dramatic profile of fluorescence intensity which clearly distinguished the normal muscle from damaged muscle.

[2] = system: β-dystroglycan; assay: Western blot analysis of β-dystroglycan and phosphorylated β-dystroglycan in sapje fish; type: in vivo, zebrafish; conditions: 1 μM MG132, western blot
Protocol: FIG. 16. Illustrates western blot analysis of β-dystroglycan (β-DG) and phosphorylated β-dystroglycan (p β-DG) in sapje fish (blue bars) and in sapje fish treated with 1 μM of the proteasomal inhibitor MG132 (purple bars).

[3] = biological target: T1, ubiquitin activating enzyme E1 (Homo sapiens, UniProt P22314); conditions: reference 51; cited from earlier work
T1 sequence (P22314 1-1058): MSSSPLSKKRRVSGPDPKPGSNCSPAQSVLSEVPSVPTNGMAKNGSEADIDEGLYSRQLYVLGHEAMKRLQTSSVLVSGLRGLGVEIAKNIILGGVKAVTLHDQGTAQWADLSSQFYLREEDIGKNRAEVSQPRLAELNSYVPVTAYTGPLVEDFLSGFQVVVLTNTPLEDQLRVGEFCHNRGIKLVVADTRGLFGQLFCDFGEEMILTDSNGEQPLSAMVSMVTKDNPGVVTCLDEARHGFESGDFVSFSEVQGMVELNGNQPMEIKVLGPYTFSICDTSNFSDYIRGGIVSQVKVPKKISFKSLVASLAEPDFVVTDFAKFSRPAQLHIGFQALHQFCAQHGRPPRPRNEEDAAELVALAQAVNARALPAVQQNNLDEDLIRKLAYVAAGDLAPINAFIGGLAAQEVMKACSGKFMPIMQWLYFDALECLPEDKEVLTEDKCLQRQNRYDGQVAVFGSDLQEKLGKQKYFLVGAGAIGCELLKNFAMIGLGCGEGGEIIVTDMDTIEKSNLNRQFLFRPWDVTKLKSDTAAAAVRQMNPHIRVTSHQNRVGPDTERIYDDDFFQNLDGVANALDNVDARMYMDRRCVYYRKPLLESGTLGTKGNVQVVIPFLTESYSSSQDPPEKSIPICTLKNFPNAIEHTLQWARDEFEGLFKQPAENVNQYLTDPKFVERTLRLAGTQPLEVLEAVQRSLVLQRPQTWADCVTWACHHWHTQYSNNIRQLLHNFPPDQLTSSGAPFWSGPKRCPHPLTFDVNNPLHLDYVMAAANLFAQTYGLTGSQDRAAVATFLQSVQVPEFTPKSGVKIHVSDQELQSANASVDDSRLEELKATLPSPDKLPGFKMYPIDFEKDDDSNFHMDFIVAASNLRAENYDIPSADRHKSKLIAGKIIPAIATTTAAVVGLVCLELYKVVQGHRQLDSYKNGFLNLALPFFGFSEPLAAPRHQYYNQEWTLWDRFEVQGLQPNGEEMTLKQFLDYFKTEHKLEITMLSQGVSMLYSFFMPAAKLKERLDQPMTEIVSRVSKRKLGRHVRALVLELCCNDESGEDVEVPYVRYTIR

[4] = system: mdx mouse; conditions: Gazzerro et al. 2010; cited from earlier work
[5] = system: β-dystroglycan; assay: β-dystroglycan ubiquitination after protein tyrosine phosphatase inhibition in myoblast cells expressing HA-tagged ubiquitin; type: cell-based; conditions: immunoprecipitation and western blot
From the text: Tyrosine phosphatases were inhibited in myoblast cells in vitro using peroxyvanadate and samples from cells expressing HA-tagged ubiquitin were taken for immunoprecipitation and western blot analysis. Immunoprecipitation with either the HA tag, or β-dystroglycan at various time points was followed by Western blotting for the HA epitope, β-dystroglycan or tubulin as a loading control.

With `CC(C)C[C@H](NC(=O)[C@H](CCc1ccccc1)NC(=O)CN1CCOCC1)C(=O)N[C@@H](Cc1ccccc1)C(=O)N[C@@H](CC(C)C)C(=O)[C@@]1(C)CO1` [Carfilzomib] the “effect on the dystrophic phenotype of sapje zebrafish” value (“effect on the dystrophic phenotype” below) [1] was “dose dependent rescue”.
With `CC(C)C[C@@H](C=O)NC(=O)[C@H](CC(C)C)NC(=O)[C@H](CC(C)C)NC(=O)OCc1ccccc1` [MG132] (Cbz-Leu-Leu-Leu-aldehyde) the “effect on the dystrophic phenotype” value [1] was “dose dependent rescue”, the “amount of non-phosphorylated b-dystroglycan in treated sapje fish” value [2] was “significant increase” and the “amount of phosphorylated b-dystroglycan in treated sapje fish” value [2] was “significant increase”.
For `CCOC(=O)c1ccc(N2NC(=O)/C(=C/c3ccc([N+](=O)[O-])o3)C2=O)cc1` [Pyr-41], the “effect on the dystrophic phenotype” value [1] is given as “small but positive benefit; also recorded: dose dependent rescue” and the “inhibition of ubiquitin activating enzyme E1” value [3] is given as “inhibit the ubiquitin activating enzyme E1”.
In the case of `CC(C)C[C@H](NC(=O)[C@H](Cc1ccccc1)NC(=O)c1cnccn1)B(O)O` [bortezomib], the “effect on the dystrophic phenotype” value [1] is listed as “Qualitatively similar results; also recorded: dose dependent rescue” and the “restoration of DGC components” value [4] is listed as “restore DGC components”.
With peroxyvanadate the “ubiquitin-β-dystroglycan bands over time course of treatment” value [5] was “increase in the proportion and number of ubiquitin-β-dystroglycan bands”.
